Reference: US20220227745A1, “Compounds For Modulating FXR” (NANJING RUIJIE PHARMA TECH CO., LTD., priority 2019, published 2022)

Biological target: T1, FXR LBD, GST (Homo sapiens, UniProt Q96RI1)
T1 construct: FXR LBD, GST; purchased Invitrogen PV4834
T1 sequence (Q96RI1 262-486 limits assumed): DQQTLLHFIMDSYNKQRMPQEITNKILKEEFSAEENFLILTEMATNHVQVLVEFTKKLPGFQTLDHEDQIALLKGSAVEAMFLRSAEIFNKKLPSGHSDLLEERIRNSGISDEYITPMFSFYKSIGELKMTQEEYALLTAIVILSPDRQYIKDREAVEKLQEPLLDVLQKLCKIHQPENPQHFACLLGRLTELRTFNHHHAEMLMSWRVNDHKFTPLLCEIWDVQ
Assay: FXR Binding Assay (TR-FRET, Fluorescein-SRC2-2 coactivator peptide)
Settings: for Emax / Pct Effect (Emax %): % Activity relative to positive control; for Emax: read-out: Pct Effect (Emax %); for EC50: TR-FRET FXR LBD coactivator recruitment
Protocol: The interaction between the present compounds and FXR are evaluated by Time-Resolved Fluorescence Resonance Energy Transfer (TR-FRET) competition assay. FRET describes a radiation-free energy transfer between two chromophores: a donor fluorophore in its excited state can transfer energy to an acceptor fluorophore in close proximity (typically <10 nm). In contrast to standard FRET, TR-FRET unites time-resolved fluorescence (TRF) and the FRET principle, TRF use a long-lifetime lanthanide chelate as the donor species, while lanthanide chelates are unique in that their excited-state lifetime can be on the order of a millisecond or longer. Suitable neighbors for FRET are known in the art and can be obtained.
The assay was performed in following steps: first, prepared a) 1 mM compounds (100×) in DMSO; b) reaction buffer containing 1× buffer G with 10 mM DTT; c) 4×FXR LBD (20 nM) in 1× chilled buffer G. Second, performed 3-fold serial dilution of 1 mM test compounds using DMSO from 1 mM, 10 doses in a 96-well plate (249944, Nunc). Then, used complete buffer G to dilute each 100× compounds serial dilution to 2×. Third, added 10 μl 2× compound serial dilution into 384-well plate (3677, Corning). Then, added 5 μl FXR LBD into the assay plate. Prepared a solution containing 2 μM fluorescein-SRC2-2 (4×) and 20 nM Tb anti-GST antibody (4×) in buffer G at room temperature and started the reaction by adding 5 μl the above solution into each well of the assay plate. Centrifuged the assay plates at 1000 g for 1 min and then incubated at room temperature for lhr protected from light. Finally, the plate was read at wavelengths of 520 nm and 495 nm on Envision 2104 plate reader (PerkinElmer).
A ratio (Ratio520 nm/495 nm−Ratiobackground) was calculated for each well. The activity ratio was calculated as follow: […]
Ratiopositive: The average ratio for the positive control across the plate.
Ratiovehicle: The average ratio for negative controls across the plate.
EC50 was calculated by fitting % Activity values and log of compound concentrations to nonlinear regression (dose response-variable slope) with GraphPad 5.0.
X: log of compound concentration.

Cn1cc(C(=O)O)c2ccc(N3CCN(CCc4c(-c5ccccc5Cl)noc4C4CC4)CC3)cc21 [Example I9, 6-(4-(2-(3-(2-chlorophenyl)-5-cyclopropylisoxazol-4-yl)ethyl)piperazin-1-yl)-1-methyl-1H-indole-3-carboxylic Acid]
Emax: 206% | EC50: 1220 nM

Cn1cc(C(=O)O)c2ccc(N3CCN(CCc4c(-c5c(F)cccc5F)noc4C4CC4)CC3)cc21 [Example I11, 6-(4-(2-(5-cyclopropyl-3-(2,6-difluorophenyl)isoxazol-4-yl)ethyl)piperazin-1-yl)-1-methyl-1H-indole-3-carboxylic Acid]
EC50: 1640 nM

CC1CN(CCc2c(-c3c(Cl)cccc3Cl)noc2C2CC2)CCN1c1ccc(CC(=O)O)cc1 (stereo not shown) [Example I13, 2-(4-(4-(2-(5-cyclopropyl-3-(2,6-dichlorophenyl)isoxazol-4-yl)ethyl)-2-methylpiperazin-1-yl)phenyl)acetic Acid]
Emax: 34.9% | EC50: 1530 nM

Cn1cc(C(=O)O)c2ccc(N3CCN(CCc4c(-c5ccc(Cl)cc5Cl)noc4C4CC4)CC3)cc21 [Example I16, 6-(4-(2-(5-cyclopropyl-3-(2,4-dichlorophenyl)isoxazol-4-yl)ethyl)piperazin-1-yl)-1-methyl-1H-indole-3-carboxylic Acid]
EC50: > 10000 nM

Cn1cc(C(=O)O)c2ccc(N3CCN(CCc4c(-c5ccccc5F)noc4C4CC4)CC3)cc21 [Example I19, 6-(4-(2-(5-cyclopropyl-3-(2-fluorophenyl)isoxazol-4-yl)ethyl)piperazin-1-yl)-1-methyl-1H-indole-3-carboxylic Acid]
Emax: 104% | EC50: 4360 nM

CC(Cc1c(-c2c(Cl)cccc2Cl)noc1C1CC1)N1CCN(c2ccc3c(C(=O)O)cn(C)c3c2)CC1 (stereo not shown) [Example I23, 6-(4-(1-(5-cyclopropyl-3-(2,6-dichlorophenyl)isoxazol-4-yl)propan-2-yl)piperazin-1-yl)-1-methyl-1H-indole-3-carboxylic Acid]
Emax: 35.7% | EC50: 1370 nM

Cn1cc(C(=O)O)c2ccc(N3C[C@H]4C[C@@H]3CN4CCc3c(-c4c(Cl)cccc4Cl)noc3C3CC3)cc21 [Example I28, 6-((1R,4R)-5-(2-(5-cyclopropyl-3-(2,6-dichlorophenyl)isoxazol-4-yl)ethyl)-2,5-diazabicyclo[2.2.1]heptan-2-yl)-1-methyl-1H-indole-3-carboxylic Acid]
Emax: 132% | EC50: 1340 nM

Cn1cc(C(=O)O)c2ccc(N3CC4CC3CN4CCc3c(-c4c(Cl)cccc4Cl)noc3C3CC3)cc21 (stereo not shown) [Example I29, 6-(5-(2-(5-cyclopropyl-3-(2,6-dichlorophenyl)isoxazol-4-yl)ethyl)-2,5-diazabicyclo[2.2.1]heptan-2-yl)-1-methyl-1H-indole-3-carboxylic Acid]
Pct Effect (Emax %): 68.08% | EC50: 3810 nM

O=C(O)c1cc(F)c2nc(N3C4CCC3CN(CCc3c(-c5c(Cl)cccc5Cl)noc3C3CC3)C4)sc2c1 [Example I31, 2-(3-(2-(5-cyclopropyl-3-(2,6-dichlorophenyl)isoxazol-4-yl)ethyl)-3,8-diazabicyclo[3.2.1]octan-8-yl)-4-fluorobenzo[d]thiazole-6-carboxylic Acid]
Emax: 45.1% | EC50: 41 nM

O=C(O)c1cc(F)c2nc(N3C4CCC3CN(CCc3c(-c5ccccc5OC(F)(F)F)noc3C3CC3)C4)sc2c1 [Example I32, 2-(3-(2-(5-cyclopropyl-3-(2-(trifluoromethoxy)phenyl)isoxazol-4-yl)ethyl)-3,8-diazabicyclo[3.2.1]octan-8-yl)-4-fluorobenzo[d]thiazole-6-carboxylic Acid]
Emax: 47.7% | EC50: 129 nM

O=C(O)c1ccc2nc(N3C4CCC3CN(CCc3c(-c5c(Cl)cccc5Cl)noc3C3CC3)C4)sc2c1 [Example I33, 2-(3-(2-(5-cyclopropyl-3-(2,6-dichlorophenyl)isoxazol-4-yl)ethyl)-3,8-diazabicyclo[3.2.1]octan-8-yl)benzo[d]thiazole-6-carboxylic Acid]
Emax: 43.3% | EC50: 97 nM

O=C(O)c1ccc2nc(N3C4CCC3CN(CCc3c(-c5ccccc5OC(F)(F)F)noc3C3CC3)C4)sc2c1 [Example I34, 2-(3-(2-(5-cyclopropyl-3-(2-(trifluoromethoxy)phenyl)isoxazol-4-yl)ethyl)-3,8-diazabicyclo[3.2.1]octan-8-yl)benzo[d]thiazole-6-carboxylic Acid]
Emax: 41.5% | EC50: 236 nM

C[C@H]1CN(CCc2c(-c3c(Cl)cccc3Cl)noc2C2CC2)CCN1c1ccc2c(C(=O)O)cn(C)c2c1 [Example I39, (S)-6-(4-(2-(5-cyclopropyl-3-(2,6-dichlorophenyl)isoxazol-4-yl)ethyl)-2-methylpiperazin-1-yl)-1-methyl-1H-indole-3-carboxylic Acid]
Emax: 129% | EC50: 150 nM

Cn1cc(C(=O)O)c2ccc(N3CC4CCC(C3)N4CCc3c(-c4c(Cl)cccc4Cl)noc3C3CC3)cc21 [Example I41, 6-(8-(2-(5-cyclopropyl-3-(2,6-dichlorophenyl)isoxazol-4-yl)ethyl)-3,8-diazabicyclo[3.2.1]octan-3-yl)-1-methyl-1H-indole-3-carboxylic Acid]
Emax: 158% | EC50: 200 nM

C[C@@H]1CN(CCc2c(-c3c(Cl)cccc3Cl)noc2C2CC2)C[C@H](C)N1c1ccc2c(C(=O)O)cn(C)c2c1 [Example I43, 6-((2S,6R)-4-(2-(5-cyclopropyl-3-(2,6-dichlorophenyl)isoxazol-4-yl)ethyl)-2,6-dimethylpiperazin-1-yl)-1-methyl-1H-indole-3-carboxylic Acid]
Emax: 110% | EC50: 1400 nM

C[C@@H]1CN(CCc2c(-c3c(Cl)cccc3Cl)noc2C2CC2)C[C@@H](C)N1c1ccc2c(C(=O)O)cn(C)c2c1 [Example I44, 6-((2R,6R)-4-(2-(5-cyclopropyl-3-(2,6-dichlorophenyl)isoxazol-4-yl)ethyl)-2,6-dimethylpiperazin-1-yl)-1-methyl-1H-indole-3-carboxylic Acid]
Emax: 73.5% | EC50: 401 nM

Cn1cc(C(=O)O)c2c(F)cc(N3CCN(CCc4c(-c5c(Cl)cccc5Cl)noc4C4CC4)CC3)cc21 [Example I46, 6-(4-(2-(5-cyclopropyl-3-(2,6-dichlorophenyl)isoxazol-4-yl)ethyl)piperazin-1-yl)-4-fluoro-1-methyl-1H-indole-3-carboxylic Acid]
Emax: 168% | EC50: 149 nM

Cn1cc(C(=O)O)c2ccc(N3CC4CC3CN4CCc3c(-c4c(Cl)cccc4Cl)noc3C3CC3)cc21 (stereo not shown) [Example I48, 6-(5-(2-(5-cyclopropyl-3-(2,6-dichlorophenyl)isoxazol-4-yl)ethyl)-2,5-diazabicyclo[2.2.1]heptan-2-yl)-1-methyl-1H-indole-3-carboxylic Acid]
Pct Effect (Emax %): 124.90% | EC50: 1720 nM

Cn1cc(C(=O)O)c2ccc(N3CC4CC(C3)N4CCc3c(-c4c(Cl)cccc4Cl)noc3C3CC3)cc21 [Example I49, 6-(6-(2-(5-cyclopropyl-3-(2,6-dichlorophenyl)isoxazol-4-yl)ethyl)-3,6-diazabicyclo[3.1.1]heptan-3-yl)-1-methyl-1H-indole-3-carboxylic Acid]
EC50: > 10000 nM

CC1CN(CCc2c(-c3c(Cl)cccc3Cl)noc2C2CC2)CCN1c1ccc2nc(C(=O)O)ccc2c1 (stereo not shown) [Example I51, 6-(4-(2-(5-cyclopropyl-3-(2,6-dichlorophenyl)isoxazol-4-yl)ethyl)-2-methylpiperazin-1-yl)quinoline-2-carboxylic Acid]
Emax: 96.5% | EC50: 74 nM
